The values that follow come from patent US9895335B2, “Ophthalmic compositions containing a nitric oxide donor” (NICOX SCIENCE IRELAND, priority 2013, dated 2018).

For this experiment, the system named is hypertonic saline-induced IOP increase in rabbits. Put plainly: Intraocular pressure (IOP) lowering activity in hypertonic saline-induced IOP increase in rabbits. The format is in vivo, New Zealand White rabbits. The arrangement: unit not given here. To be noted: topical, versus vehicle and versus basal IOP before hypertonic saline injection. As to the method: Intraocular Pressure (IOP) Lowering Activity in Hypertonic Saline-Induced IOP Increase in Rabbits
The Intraocular pressure (TOP) lowering activity of compound (Ia) (Example 1) was assessed in an animal model of elevated IOP.
Adults male New Zealand White rabbits weighting 1.8-2.0 Kg were used in the experiments.
IOP was measured using a Tono-Pen XL prior to hypertonic saline injection (basal) and at 30, 60, 120 and 240 min thereafter. Vehicle (5% cremophor-EL; 0.3% DMSO; 0.2 mg/ml bac in PBS pH 6.0,) or compound (Ia) dissolved in the vehicle at different concentrations (0.1%, 0.3% and 1%) was instilled as eye drops immediately after hypertonic saline injection. Eyes were randomly assigned to different treatment groups. Vehicle or compound (Ia) was directly instilled into the conjunctiva pocket at the desired doses. One drop of 0.4% oxybuprocaine hydrochloride (Novesine, Sandoz) was instilled in each eye immediately before each set of pressure measurements.
Results are reported in Table in which the ocular hypotensive activity of compound (Ia) at different is expressed as IOP change (at 60 and 120 minutes following topical administration) versus vehicle and versus IOP at basal before hypertonic saline injection.

Consider `CCCC(=O)OCCCCO[N+](=O)[O-]` [Compound (Ia), 4-Nitrooxybutan-1-Ol Butyrate], for which the IOP change is recorded as −10.3 ± 0.3 (0.1% eye drops, 60 min after administration); −5 ± 1.8 (0.1% eye drops, 120 min after administration); −16.5 ± 3.8 (0.3% eye drops, 60 min after administration); −9 ± 2.1 (0.3% eye drops, 120 min after administration); −21.1 ± 4.5 (1% eye drops, 60 min after administration); −15.1 ± 2.3 (1% eye drops, 120 min after administration).
